Values after ≈ are worked out from the molar mass of the structure shown. Active and inactive are the calls of the source. The calls are words filed in the database; no cut-off is given here.
Assays:
P388 = assay: Cytotoxicity against mouse P388 cells; type: functional; settings: read-out: ED50 (the source's name)
Staphylococcus aureus [1] = assay: Antibacterial activity against Staphylococcus aureus by disk susceptibility test; type: functional
Micrococcus luteus = assay: Antibacterial activity against Micrococcus luteus at 100 ug/disk by disk susceptibility test; type: functional, organism-based
Neisseria gonorrhoeae = assay: Antibacterial activity against Neisseria gonorrhoeae at 100 ug/disk by disk susceptibility test; type: functional, organism-based
Cryptococcus neoformans = assay: Antimicrobial activity against Cryptococcus neoformans at 100 ug/disk by disk susceptibility test; type: functional, organism-based
Staphylococcus aureus [2] = assay: Antibacterial activity against Staphylococcus aureus at 100 ug/disk by disk susceptibility test; type: functional, organism-based

Row | SMILES | EC50 (P388) | MIC (Staphylococcus aureus [1]) | Activity (Micrococcus luteus) | Activity (Neisseria gonorrhoeae) | Activity (Cryptococcus neoformans) | Activity (Staphylococcus aureus [2])
1 | C[C@]1(CO)CCC[C@]2(C)[C@H]3C[C@@H](O)[C@]4(C)C5=C(CC[C@H]4[C@]3(C)CC[C@@H]12)COC5=O [SESTERSTATIN 2] | 4.2 µg/mL (≈ 10.4 µM) | 50 µg | inactive | inactive | inactive | –
2 | CC1(C)[C@@H](O)CC[C@]2(C)[C@H]3C[C@@H](O)[C@]4(C)C5=C(CC[C@H]4[C@]3(C)CC[C@@H]12)COC5=O [SESTERSTATIN 1] | 0.46 µg/mL (≈ 1.14 µM) | – | inactive | inactive | inactive | inactive
3 | C[C@@]1(CO)CCC[C@]2(C)[C@H]3C[C@@H](O)[C@]4(C)C5=C(CC[C@H]4[C@]3(C)CC[C@@H]12)COC5=O [SESTERSTATIN 3] | 4.3 µg/mL (≈ 10.7 µM) | – | inactive | inactive | inactive | inactive

Reference: ChEMBL document CHEMBL1158845, “Antineoplastic agents. 386. Isolation of sesterstatins 1-3 from the marine sponge Hyrtios erecta” (1998)
